Where a name gives a salt, the structure may show the parent alone. Read-outs that look alike come from different tables or passages of the source.
Experiments:
SARS-CoV-2 [1] = settings: for EC50: read-out: HeLa-ACE2 CoV-2 EC50
SARS-CoV-2 [2] = settings: for EC50: read-out: Calu-3 CoV-2 EC50
HeLa-ACE2 cells [3] = system: HeLa-ACE2 cells
SARS-CoV-2 [4] = test: microbe, parasite or virus in culture
SARS-CoV-2 [5] = test: Checkerboard synergy study with remdesivir (ZIP model, synergyfinder); type: cell-based; settings: for Synergy score with remdesivir (δ): Table 3
in vitro = settings: human
[6] = rat, oral; cited from earlier work
SARS-CoV-2 [7] = test: Time of addition (TOA) assay in HeLa-ACE2 cells; type: cell-based
SARS-CoV-2 [8] = test: SARS-CoV-2 primary ALI HBEC model; type: cell-based; settings: apical washes 72 hpi
Procedure: SARS-CoV-2 primary ALI HBEC model. Normal primary human bronchial epithelial cells (HBECs) (Lonza) were cultured in Millicell-96 cell culture insert plates with 1 μm PET filters (Sigma) at an air liquid interface for at least 4 weeks using PneumaCult™-ALI Medium (Stemcell Technologies). Briefly, the HBECs were first expanded in cell culture flasks before seeding 10,000 cells per well submerged in PneumaCult™-Ex Plus Medium. After 1 week, the cells were switched into PneumaCult™-ALI Medium and medium was removed from the apical surface. The air liquid interface was maintained, and the medium exchanged every 2-3 days for at least 4 weeks to allow for differentiation of the cells. Prior to infection, the apical surface was rinsed once with DPBS and compounds were added to the basolateral chamber. 20,000 PFU SARS-CoV-2 strain USA-WA1/2020 were added to the apical surface in 50 μL PBS and allowed to incubate for 2 h. The inoculum was then removed, and the cells rinsed once with DPBS. The medium was exchanged, and fresh compound added at 24 and 48 h post-infection. Apical washes were collected at 72 h post-infection by adding 100 μL DPBS to the apical surface for 15 minutes. RNA was isolated from the apical washes using the PureLink™ Pro 96 Viral RNA/DNA Purification Kit (Thermo Fisher) and analyzed for viral RNA levels by RT-qPCR using the SuperScript™ III Platinum™ One-Step qRT-PCR Kit (Thermo Fisher) and the 2019-nCoV N1 CDC Primers and Probe set (Integrated DNA Technologies). A standard curve was generated by isolating RNA from serial dilutions of the stock virus and used to determine the PFU equivalents/mL for each sample. The viral load reductions were then determined for each experimental compound treatment compared to the neutral DMSO control and plotted in log scale. Cytotoxicity was assessed by measuring LDH activity in the basolateral media using a Cytotoxicity Detection kit (LDH) (Sigma) following the manufacturer's instructions. […] Technical triplicates were run for both antiviral and cytotoxicity readouts. […]

[9] = human, oral; cited from earlier work
HeLa-ACE2 cells [10] = test: cells; type: cell-based, human; settings: Homo sapiens, HeLa-ACE2, read-out: HeLa-ACE-2 EC50 [μM] (Geomeans, n ≥ 2)
[11] = Table 4, aggregated data, Geomean, n = 3
[12] = Table 4, aggregated data, Geomean, n = 3, 48 h
[13] = read-out: Calu-3 Uninfected Tox CC50, Table 4, aggregated data, Geomean, n = 3
[14] = read-out: HeLa-ACE2 Uninfected Tox CC50, Table 4, aggregated data, Geomean, n = 3
[15] = Severe acute respiratory syndrome coronavirus 2, HeLa-ACE2, 24 h, read-out: CoV-2 EC50 [μM] (Geomeans, n ≥ 2)
[16] = Severe acute respiratory syndrome coronavirus 2, HeLa-ACE2, read-out: SARS CoV-2 EC50 (μM)
[17] = CC50 [μM] (Geomeans, n ≥ 2 except where indicated: *n = 1)

Procedure for Calu-3 cells: To assess cell viability, 2 μL of 50% Cell-Titer Glo (Promega No G7573) diluted in water was added to the cells and luminescence measured on an EnVision Plate Reader (Perkin Elmer).
Data analysis. […] Primary in vitro screen and the host cell cytotoxicity counter screen data were uploaded to Genedata Screener, Version 16.0.3-Standard. […] For the uninfected host cell cytotoxicity counter screens, 40 μM puromycin (Sigma) was used as the positive (inhibitory) control in HeLa-ACE2, HepG2 and HEK293T cells, and 30 μM puromycin (Sigma) was used as the positive (inhibitory) control for Calu-3 cells. For dose response experiments compounds were tested in technical triplicates on different assay plates and dose curves were fitted with the four parameter Hill Equation. Technical replicate data were analyzed using median condensing. Geometric means and geometric standard deviations are reported for compound activities (EC50s and CC50s) obtained in multiple independent biological experiments. […] Geometric means were calculated by computing the logarithm (base 10) of all values, calculating the mean of these logarithms, and taking the antilog of that mean. Geometric standard deviations were computed by taking the standard deviation of the log-transformed individual values and taking the antilog of that standard deviation. The geometric standard deviation is a unitless ratio and reported as ×÷ instead of +/−.

## O=c1[nH]c2ccc(C(F)(F)F)cc2c(-c2cc(Cl)ccc2O)c1CCO [BMS-223131]
SARS-CoV-2 [1]; [11]
  EC50: > 9.59 µM
SARS-CoV-2 [2]; Table 4
  Calu3 SI CC50/CoV-2 EC50: >5.8
SARS-CoV-2 [2]; [12]
  EC50: 5.14 µM
Calu-3 cells; [13]
  CC50: > 29.9 µM
HeLa-ACE2 cells [3]; [14]
  CC50: 21.4 µM

## CCOc1ccc(Cc2nc3cc(N(C)S(=O)(=O)c4cccs4)ccc3n2CC2CCCCC2)nc1 [AZ-11713908]
SARS-CoV-2 [1]; [11]
  EC50: > 9.59 µM
SARS-CoV-2 [2]; Table 4
  Calu3 SI CC50/CoV-2 EC50: >8
SARS-CoV-2 [2]; [12]
  EC50: 3.54 µM
Calu-3 cells; [13]
  CC50: > 29.9 µM
HeLa-ACE2 cells [3]; [14]
  CC50: 33 µM

## COc1ccc2cc1Oc1ccc(cc1)C[C@H]1c3cc(c(OC)cc3CCN1C)Oc1c(OC)c(OC)cc3c1[C@H](C2)N(C)CC3 [Hanfangchin A]
SARS-CoV-2 [4]; [15]
  EC50: 1.18 µM
SARS-CoV-2 [4]; [16]
  EC50: 1.18 µM
SARS-CoV-2 [5]
  Synergy score with remdesivir (δ): −3.61
In vitro; [17]
  CC50: > 18.9 µM
In vitro; Uninfected HeLa-ACE2 CC50 (μM)
  CC50: > 18.9 µM
SARS-CoV-2 [1]
  HeLa-ACE2 CC50/CoV-2 EC50: >16.08
[6]
  Cmax: ~500 nM
  t1/2: ~20 h (rats, oral)(31)

## Cc1cccc(/C=N/Nc2cc(N3CCOCC3)nc(OCCc3ccccn3)n2)c1 [Apilimod]
SARS-CoV-2 [4]; [15]
  EC50: < 0.006 µM
SARS-CoV-2 [4]; [16]
  EC50: < 0.006 µM
SARS-CoV-2 [4]; Severe acute respiratory syndrome coronavirus 2, HeLa-ACE2, read-out: SARS-CoV-2 EC50
  EC50: 0.184 µM
SARS-CoV-2 [5]
  interaction with remdesivir: additive
  Synergy score with remdesivir (δ): 3.57
SARS-CoV-2 [7]
  classification as entry inhibitor in HeLa-ACE2 cells: entry inhibitors
SARS-CoV-2 [7]; 10 μM, HeLa-ACE2, time course 4 to 24 hpi
  activity when treatment initiated at 1 hpi: Loss of activity
SARS-CoV-2 [8]
  viral replication in ALI-HBECs: did not
In vitro; [17]
  CC50: > 27.8 µM
In vitro; Uninfected HeLa-ACE2 CC50 (μM)
  CC50: > 27.8 µM
In vitro; uninfected HeLa-ACE2 CC50
  CC50: > 40 µM
SARS-CoV-2 [1]
  HeLa-ACE2 CC50/CoV-2 EC50: >4353.33
  increase in EC50 from MOI=1 to MOI=26: 3.7 fold
SARS-CoV-2 [2]
  activity in Calu-3 infection assay: not active
[9]
  Cmax: ~600 nM
  t1/2: ~3 h (human, oral)(27)
HeLa-ACE2 cells [10]
  EC50: > 9.6 µM

## COC1(c2cc(F)cc(OCc3ccc4c(ccc(=O)n4C)c3)c2)CCOCC1 [ZD 2138]
SARS-CoV-2 [1]; [11]
  EC50: > 9.59 µM
SARS-CoV-2 [2]; Table 4
  Calu3 SI CC50/CoV-2 EC50: 5.18
SARS-CoV-2 [2]; [12]
  EC50: 2.79 µM
Calu-3 cells; [13]
  CC50: 14.4 µM
HeLa-ACE2 cells [3]; [14]
  CC50: 28.7 µM

## Antimycin A3
SARS-CoV-2 [1]; [11]
  EC50: > 9.59 µM
SARS-CoV-2 [2]; Table 4
  Calu3 SI CC50/CoV-2 EC50: 109.64
SARS-CoV-2 [2]; [12]
  EC50: 0.036 µM
Calu-3 cells; [13]
  CC50: 3.9 µM
HeLa-ACE2 cells [3]; [14]
  CC50: > 39.8 µM

## CC(=O)OC[C@H]1O[C@@H]([S-])[C@H](OC(C)=O)[C@@H](OC(C)=O)[C@@H]1OC(C)=O.CCP(CC)CC.[Au+] [auranofin]
SARS-CoV-2 [1]; Table 4
  HeLa-ACE2 SI CC50/CoV-2 EC50: 0.64
SARS-CoV-2 [1]; [11]
  EC50: 0.988 µM
SARS-CoV-2 [2]; Table 4
  Calu3 SI CC50/CoV-2 EC50: 7.87
SARS-CoV-2 [2]; [12]
  EC50: 0.525 µM
Calu-3 cells; [13]
  CC50: 3.13 µM
HeLa-ACE2 cells [3]; [14]
  CC50: 0.634 µM

## NCCc1cn(S(=O)(=O)c2c(Cl)nc3sccn23)c2ccccc12 [SAX-187]
SARS-CoV-2 [4]; [15]
  EC50: 1.85 µM
SARS-CoV-2 [4]; [16]
  EC50: 1.85 µM
In vitro; [17]
  CC50: 7.43 µM
In vitro; Uninfected HeLa-ACE2 CC50 (μM)
  CC50: 7.43 µM
SARS-CoV-2 [1]
  HeLa-ACE2 CC50/CoV-2 EC50: 4.02
[6]
  Cmax: 400 nM
  t1/2: ~3 h (rat, oral)(39)
HeLa-ACE2 cells [10]
  EC50: > 9.37 µM

## Cc1nc2c(s1)C(=O)C=C(NCCN(C)C)C2=O [BN-82685]
SARS-CoV-2 [1]; Table 4
  HeLa-ACE2 SI CC50/CoV-2 EC50: 3.04
SARS-CoV-2 [1]; [11]
  EC50: 1.53 µM
SARS-CoV-2 [2]; Table 4
  Calu3 SI CC50/CoV-2 EC50: 5.69
SARS-CoV-2 [2]; [12]
  EC50: 3.05 µM
Calu-3 cells; [13]
  CC50: 5.96 µM
HeLa-ACE2 cells [3]; [14]
  CC50: 4.66 µM

## N=C(N)c1ccc2cc(OC(=O)c3ccc(N=C(N)N)cc3)ccc2c1 [nafamostat mesylate]
SARS-CoV-2 [8]
  viral replication in ALI-HBECs: inhibited viral replication
SARS-CoV-2 [1]; text b101-b103
  activity in HeLa-ACE2 infection assay: not active
SARS-CoV-2 [2]
  activity in Calu-3 infection assay: active

## CSc1ncnc2c1ncn2[C@@H]1O[C@H](CO)[C@@H](O)[C@H]1O [6-Methyl mercaptopurineriboside]
SARS-CoV-2 [1]; Table 4
  HeLa-ACE2 SI CC50/CoV-2 EC50: 4.27
SARS-CoV-2 [1]; [11]
  EC50: 3.6 µM
SARS-CoV-2 [2]; Table 4
  Calu3 SI CC50/CoV-2 EC50: 5.80
SARS-CoV-2 [2]; [12]
  EC50: 0.207 µM
Calu-3 cells; [13]
  CC50: 1.2 µM
HeLa-ACE2 cells [3]; [14]
  CC50: 15.4 µM

## Cn1cnc([N+](=O)[O-])c1Sc1ncnc2[nH]cnc12 [Azathioprin]
SARS-CoV-2 [1]
  HeLa-ACE2 SI CC50/CoV-2 EC50: 7.67
  EC50: 5.08 µM
SARS-CoV-2 [2]
  Calu3 SI CC50/CoV-2 EC50: 7.35
  EC50: 0.482 µM
Calu-3 cells
  CC50: 3.55 µM
HeLa-ACE2 cells [3]
  CC50: 39 µM

## Cloturin
SARS-CoV-2 [1]; Table 4
  HeLa-ACE2 SI CC50/CoV-2 EC50: 8.13
SARS-CoV-2 [1]; [11]
  EC50: 3.88 µM
SARS-CoV-2 [2]; Table 4
  Calu3 SI CC50/CoV-2 EC50: 6.62
SARS-CoV-2 [2]; [12]
  EC50: 0.304 µM
Calu-3 cells; [13]
  CC50: 2.01 µM
HeLa-ACE2 cells [3]; [14]
  CC50: 31.5 µM

## Nc1nccc2c1ncn2C1C=C(CO)C(O)C1O (centres unmarked) [DEAZANEPLANOCINA]
SARS-CoV-2 [1]; [11]
  EC50: > 9.59 µM
SARS-CoV-2 [2]; Table 4
  Calu3 SI CC50/CoV-2 EC50: 182.24
SARS-CoV-2 [2]; [12]
  EC50: 0.057 µM
Calu-3 cells; [13]
  CC50: 10.3 µM
HeLa-ACE2 cells [3]; [14]
  CC50: 7.95 µM

## CC[C@H]1OC(=O)[C@H](C)[C@@H](O[C@H]2C[C@@](C)(OC)[C@@H](O)[C@H](C)O2)[C@H](C)[C@@H](O[C@@H]2O[C@H](C)C[C@H](N(C)C)[C@H]2O)[C@](C)(O)C[C@@H](C)CN(C)[C@H](C)[C@@H](O)[C@]1(C)O [azithromycin]
SARS-CoV-2 [7]
  classification as entry inhibitor in HeLa-ACE2 cells: entry inhibitors
SARS-CoV-2 [2]
  activity in Calu-3 infection assay: not active

## Nc1nc2[nH]cnc2c(=S)[nH]1 [Tioguanine]
SARS-CoV-2 [1]; Table 4
  HeLa-ACE2 SI CC50/CoV-2 EC50: 3.58
SARS-CoV-2 [1]; [11]
  EC50: 0.787 µM
SARS-CoV-2 [2]; Table 4
  Calu3 SI CC50/CoV-2 EC50: 6.45
SARS-CoV-2 [2]; [12]
  EC50: 0.127 µM
Calu-3 cells
  CC50: 0.822 µM
HeLa-ACE2 cells [3]; [14]
  CC50: 2.82 µM

## N#Cc1c(N)nc(N)nc1N[C@H](c1nc2c(F)ccc(Cl)c2c(=O)n1-c1cccnc1)C1CC1 [GS-9901]
SARS-CoV-2 [4]; [15]
  EC50: 3.81 µM
In vitro; [17]
  CC50: > 31.1 µM
In vitro; Uninfected HeLa-ACE2 CC50 (μM)
  CC50: > 31.1 µM
SARS-CoV-2 [1]
  HeLa-ACE2 CC50/CoV-2 EC50: >8.17
[6]
  Cmax: ~1800 nM
  t1/2: ~2 h (rat, oral)(36)

## CN(C)C(C(=O)Nc1ccc2c(=O)[nH]ccc2c1)c1ccsc1 (centres unmarked) [Verosudil]
SARS-CoV-2 [1]; [11]
  EC50: > 9.59 µM
SARS-CoV-2 [2]; Table 4
  Calu3 SI CC50/CoV-2 EC50: 5.39
SARS-CoV-2 [2]; [12]
  EC50: 3.51 µM
Calu-3 cells; [13]
  CC50: 18.9 µM
HeLa-ACE2 cells [3]; [14]
  CC50: > 39.8 µM

Source: patent US20230346820A1, “METHODS AND COMPOSITIONS FOR THE TREATMENT OF SARS-COV-2” (priority 2020, published 2023)
